Holding throughout (assay type): cell-based
The test system of assay [1] is BXPC3 human pancreatic cancer cells. Description: Cell kill screening, CellTiter Glo viability assay, BXPC3. Conditions: 24 hours treatment, 0.5% serum and 0.05% DMSO, relative to untreated control; for viability at 50 µM: BXPC-3, 50 μM, read-out: % avg live cells @ 50 μM (% Viable Cells Remaining); for viability at 100 µM: BXPC-3, 100 μM, read-out: % avg live cells @ 100 μM (% Viable Cells Remaining). An excerpt:
(§1) The objective of this investigation was to assess the in vitro cell killing activities of analogs of lipoic acid in BXPC3 human pancreatic, 11460 non small lung carcinoma, and SF539 human gliosarcoma cancer cells.
(§2) Three human tumor cell types, BXPC3 human pancreatic cancer, H460 non small lung carcinoma, and SF539 human gliosarcoma, were used in this investigation. The BXPC3 and H460 cells were originally obtained from American Type Cell Culture (ATCC). The SF539 cells were originally obtained from the NCI AIDS and Cancer Specimen Bank (ACSB). All tumor cells were maintained at 37° C. in a humidified 5% CO2 atmosphere in T75 tissue culture flasks containing 20 mL of Roswell Park Memorial Institute (RPMI) 1640 containing 2 mM L-glutamine, 10% FBS and 1% penicillin and streptomycin (100 IU/mL penicillin and 100 μg/mL streptomycin). The tumor cells were split at a ratio of 1:5 every 4-5 days by trypsinization and resuspended in fresh medium in a new flask. Cells were harvested for experiments at 70-90% confluency.
(§3) Stock solutions of each analog were prepared at a concentration of 200 and 100 mM in DMSO. Five μL of this solution was diluted in 10.0 mL of 0.5% serum containing RPMI media to give the desired 100 μM and 50 μM solutions in 0.05% DMSO.
(§4) The cancer cells were seeded at 4000 cells/well for H460 cells and 6000 cells/well for BXPC3 and SF 539 cells and incubated 24 hours. The killing activity of analogs was assayed at 50 μM and 100 μM concentrations. The tumor cells were treated for 24 hours with the test article, and after 24 hours of treatment the number of viable tumor cells was determined using the CTG assay.
(§5) The number of cells targeted for the study is 4×10^3 per well for H460 cells and 6×10^3 per well for BXPC3 and SF539 cells in 100 μL of medium. The actual number of cells were counted and seeded in the wells of a 96 well-plate. The cells were incubated for approximately 24 hours before addition of test article.
(§6) The media in the plate was removed by aspiration, and 100 μL of the test article at a final concentration of 50 μM or 100 μM was added to the cells. After exposure to the test articles for 24 hours, the number of viable cells in each well was determined and the percent of viable cells relative to control (in the absence of test article) were calculated. Additionally, a set of wells was treated with cell culture medium in the absence of cells to obtain a value for background luminescence. A separate set of cells was seeded at the same time in a clear 96-well plate and observed under the microscope at 24 hours, following addition of the test article to estimate the amount of cells present after treatment.
(§7) The number of viable cells was determined by using the CTG assay. Specifically, reagents were mixed and allowed to come to room temperature according to instructions from Promega, Inc. (Madison, Wis.). Cell plates were removed from the cell culture incubator and left on the bench for thirty minutes until they reached room temperature. 100 μL per well of CTG reagent was added with the 12-channel Eppendorf pipettor. The cells were lysed by shaking the plate for two minutes in a shaker. The cells were kept in room temperature for ten minutes to stabilize the luminescent signal. The luminescence was measured using the FLUOstar OPTIMA plate reader (BMG Labtech, Inc., Durham, N.C.).
(§8) Data from luminescence readings was copied onto EXCEL spreadsheets, and cell growth relative to untreated cells was calculated, using the following equation: […]
A general note: ATP-based viability assays read luminescence as a measure of living cells.

Assay [2] has as its system SF539 human gliosarcoma cells. Description: Cell kill screening, CellTiter Glo viability assay, SF539. Conditions: 24 hours treatment, 0.5% serum and 0.05% DMSO, relative to untreated control; for viability at 50 µM: SF-539, 50 μM, read-out: % avg live cells @ 50 μM (% Viable Cells Remaining); for viability at 100 µM: SF-539, 100 μM, read-out: % avg live cells @ 100 μM (% Viable Cells Remaining).
Source text: as §1, §2, §3, §4, §5, §6, §7, §8

Assay [3] relates to H460 non small lung carcinoma cells. The assay can be described thus: Cell kill screening, CellTiter Glo viability assay, H460. Conditions: Homo sapiens, 24 hours treatment, 0.5% serum and 0.05% DMSO, relative to untreated control; for viability at 50 µM: NCI-H460, 50 μM, read-out: % avg live cells @ 50 μM (% Viable Cells Remaining); for viability at 100 µM: NCI-H460, 100 μM, read-out: % avg live cells @ 100 μM (% Viable Cells Remaining).
Source text: as §1, §2, §3, §4, §5, §6, §7, §8

With `O=CCCCCC(CCSCc1ccccc1)SCc1ccccc1` (stereo not shown) [A], the viability at 50 µM in assay [1] was determined as 37.6%; in assay [2], 29.4%; in assay [3], 44.9%. Also, the viability at 100 µM amounted to 26.3% in assay [1], 28.1% in assay [2] and 29.9% in assay [3].
For `O=C(CCCCC(CCSCc1ccccc1)SCc1ccccc1)N1CCOCC1` (stereo not shown) [J], the viability at 50 µM amounted to 8.2% in assay [1], 38.2% in assay [2] and 37.2% in assay [3]. In addition, the results for the viability at 100 µM in assay [1], in assay [2] and in assay [3] were 4.6%, 15.9% and 15.8%, respectively.
`O=C(O)/C=C/CCCCC(CCSCc1ccccc1)SCc1ccccc1` (stereo not shown) [D]: in assay [2], the viability at 50 µM is 9.9% and the viability at 100 µM came out at 0%. In addition, in assay [3], the viability at 50 µM was found to be 15.4% and the viability at 100 µM came out at 0%.
`O=C(CCCCC(CCSCc1ccccc1)SCc1ccccc1)NCCS(=O)(=O)O` (stereo not shown) [N]: the figures for the viability at 50 µM in assay [1], in assay [2] and in assay [3] were 126%, 104% and 119%, respectively. For the same molecule, the viability at 100 µM in assay [1] stood at 95%; in assay [2], 75%; in assay [3] it was 89%.
As to `O=C(O)CCCCC(CCNC(=O)OCc1ccccc1)NC(=O)OCc1ccccc1` (stereo not shown) [G], the viability at 50 µM in assay [1] was 82%; in assay [2], 97.3%; in assay [3] it was 89.1%. The viability at 100 µM in assay [1] worked out at 72.6%; in assay [2] it was 79.6%; in assay [3], 87%.
Regarding `O=C(CCCCC(CCSCc1ccccc1)SCc1ccccc1)OCc1ccccc1` (stereo not shown) [H], the values for the viability at 50 µM in assay [1], in assay [2] and in assay [3] were 92%, 97% and 110%, respectively. Besides, the viability at 100 µM in assay [1] came out at 84%; in assay [2], 95%; in assay [3], 101%.
On to `CCN(CC)C(=O)CCCCC(CCSCc1ccccc1)SCc1ccccc1` (stereo not shown) [L], for which the values for the viability at 50 µM in assay [1], in assay [2] and in assay [3] were 28%, 58% and 58%, respectively. Moreover, the values for the viability at 100 µM in assay [1], in assay [2] and in assay [3] were 14%, 32% and 18%, respectively.
Regarding `NC(=O)CCCCC(CCSCc1ccccc1)SCc1ccccc1` (stereo not shown) [I], the viability at 50 µM in assay [1], in assay [2] and in assay [3] was 1% throughout. In addition, the values for the viability at 100 µM in assay [1], in assay [2] and in assay [3] were 0%, 1% and 0%, respectively.
On to `O=C(O)CCCCCCC(CCSCc1ccccc1)SCc1ccccc1` (stereo not shown) [C], for which the viability at 50 µM in assay [1] was 2%; in assay [2], 5%; in assay [3] it was 3%. In addition, the figures for the viability at 100 µM in assay [1], in assay [2] and in assay [3] were 6%, 20% and 15%, respectively.
For the molecule `O=C(CCCCC(CCSCc1ccccc1)SCc1ccccc1)NCCN1CCOCC1` (stereo not shown) [K], the viability at 50 µM in assay [1] came out at 1%; in assay [2] it was 0%; in assay [3] it was 0%. Moreover, the viability at 100 µM in assay [1], in assay [2] and in assay [3] was 0% in each case.
With `CCN(CC)CCNC(=O)CCCCC(CCSCc1ccccc1)SCc1ccccc1` (stereo not shown) [M], the results for the viability at 50 µM in assay [1], in assay [2] and in assay [3] were 10.8%, 3.1% and 20.5%, respectively. In addition, the viability at 100 µM stood at 1.4% in assay [1], 1.9% in assay [2] and 8.5% in assay [3].
